Data reported in patent US11584736B2, “Heterocyclic P2Y14 receptor antagonists” (The United States of America, as represented by the …, priority 2018, dated 2023).

tested on: eosinophils in the bronchoalveolar lavage fluid; test: Protease-mediated mouse model of asthma; assay type: in vivo; settings: 10 mg/kg i.p., 30 minutes prior to ovalbumin challenge at day 14, P<0.01 vs vehicle
Procedure: […][…] antagonists were tested in vivo in a protease-mediated mouse model of asthma and found to be effective in reducing the presence of eosinophils in the bronchoalveolar lavage fluid. The animals were first sensitized with ovalbumin/Aspergillus oryzae extract on days 0 and 7. Antagonists were injected i.p. at a dose of 10 mg/kg, 30 minutes prior to an ovalbumin challenge at day 14. […] Both […][…] antagonist effects were statistically significant (P<0.01) compared to vehicle control.

Compound	eosinophils in the bronchoalveolar lavage fluid, normalized and compared to vehicle (100±15%) [%]
O=C(O)c1cc(-c2ccc(C3CCNCC3)cc2)c2ccc(-c3ccc(C(F)(F)F)cc3)cc2c1 [Compound 1]	43.9±12.8
NCCCNC(=O)c1ccc(-c2cc(C(=O)O)cc(-n3cc(-c4ccc(C(F)(F)F)cc4)nn3)c2)s1 [Compound 23]	40.3±11.0

biological target: T1, hP2Y14R (Homo sapiens, UniProt Q15391); test: Competitive fluorescent binding assay, flow cytometry of whole hP2Y14R-CHO cells; settings: Table 1; hP2Y14R-CHO cells, fluorescent antagonist tracer 20 nM, mean ± SEM (n = 3-5); read-out: IC50
T1 construct: expressed in transfected cells
T1 sequence (Q15391 1-338): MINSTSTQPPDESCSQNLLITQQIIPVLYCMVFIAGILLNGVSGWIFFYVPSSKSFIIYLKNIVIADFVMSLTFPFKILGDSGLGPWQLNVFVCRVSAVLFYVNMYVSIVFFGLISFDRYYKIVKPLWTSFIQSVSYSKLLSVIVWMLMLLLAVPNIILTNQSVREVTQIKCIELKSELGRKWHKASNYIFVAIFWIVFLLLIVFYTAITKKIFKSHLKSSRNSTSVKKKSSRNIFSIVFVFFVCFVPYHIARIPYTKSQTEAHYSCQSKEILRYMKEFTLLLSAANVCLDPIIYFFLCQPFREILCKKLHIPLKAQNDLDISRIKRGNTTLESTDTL
Procedure: Cell Culture: Chinese hamster ovary cells stably expressing the hP2Y14—R (CHO-hP2Y14R) were grown in Dulbecco's Modified Eagle's Medium (DMEM)/Ham's F12 (F12) 1:1 supplemented with 10% FBS, 100 units/mL penicillin, […] streptomycin, 2 mM L-glutamine and 0.500 mg/mL G418 Sulfate (Geneticin). Cells were maintained in a humidified atmosphere and sterile incubation conditions held at 37° C. and 5% CO2 (g).
Competitive Assay: Competitive fluorescent assays were performed on a BD FACSCalibur flow cytometer in conjunction with the softwares BD Bioscience PlateManager and CellQuest. All cell culture growth and assays for this procedure were conducted on flat-bottom 96-well plates. CHO-hP2Y14R cells were grown to approximately 80-90% confluency prior to assays. The 96-well plate format enabled four compounds to be analyzed in triplicate per run. All unlabeled ligand compounds are stored as 5 mM stock solutions in dimethyl sulfoxide (DMSO). Serial dilutions of each compound were prepared in complete medium. Cells were initially incubated with unlabeled compounds for 30 min at 37° C. and 5% CO2 (g). […] After three consecutive washes in sterile 1× Dulbecco's Phosphate Buffered Saline (DPBS) minus Ca^2+/Mg^2+, cells were detached from the plate using Corning Cellstripper™ to reduce damaging the hP2Y14R protein. Final cell suspensions for flow cytometry was in DPBS minus Ca^2+/Mg^2+.
IC50 values were determined from the gathered data with the program GraphPad Prism version 7.0.

Compound	IC50 [nM]
C#CCN1CCC(c2ccc(-c3cc(C(=O)O)cc4cc(-c5ccc(C(F)(F)F)cc5)ccc34)cc2)CC1 [Compound 6, 4-(4-(1-(Prop-2-yn-1-yl)piperidin-4-yl)phenyl)-7-(4-(trifluoromethyl)phenyl)-2-naphthoic acid]	139 ± 19
NC(=O)c1cc(-c2ccc(C3CCNCC3)cc2)cc(-n2cc(-c3ccc(C(F)(F)F)cc3)nn2)c1 [Compound 15, 4′-(Piperidin-4-yl)-5-(4-(4-(trifluoromethyl)phenyl)-1H-1,2,3-triazol-1-yl)-[1,1′-biphenyl]-3-carboxamide]	> 100000
O=C(O)c1cc(-c2ccc(C34CCNCC3C4)cc2)cc(-n2cc(-c3ccc(C(F)(F)F)cc3)nn2)c1 (stereo not shown) [Compound 18, 4′-(3-Azabicyclo[4.1.0]heptan-6-yl)-5-(4-(4-(trifluoromethyl)phenyl)-1H-1,2,3-triazol-1-yl)-[1,1′-biphenyl]-3-carboxylic acid]	~400
CN1CCC(c2ccc(-c3cc(C(=O)O)cc4cc(-c5ccc(C(F)(F)F)cc5)ccc34)cc2)CC1 [Compound 5, 4-(4-(1-Methylpiperidin-4-yl)phenyl)-7-(4-(trifluoromethyl)phenyl)-2-naphthoic acid]	195 ± 120
N#Cc1cc(-c2ccc(C3CCNCC3)cc2)cc(-n2cc(-c3ccc(C(F)(F)F)cc3)nn2)c1 [Compound 16, 4′-(Piperidin-4-yl)-5-(4-(4-(trifluoromethyl)phenyl)-1H-1,2,3-triazol-1-yl)-[1,1′-biphenyl]-3-carbonitrile]	42100 ± 8400
CCCN1CCC(c2ccc(-c3cc(C(=O)O)cc4cc(-c5ccc(C(F)(F)F)cc5)ccc34)cc2)CC1 [Compound 7, 4-(4-(1-Propylpiperidin-4-yl)phenyl)-7-(4-(trifluoromethyl)phenyl)-2-naphthoic acid]	133 ± 111
NCCOCCOCCOCCOCCOCCOCCC(=O)N1CCC(c2ccc(-c3cc(C(=O)O)cc4cc(-c5ccc(C(F)(F)F)cc5)ccc34)cc2)CC1 [Compound 12, 4-(4-(1-(1-Amino-3,6,9,12,15,18-hexaoxahenicosan-21-oyl)piperidin-4-yl)phenyl)-7-(4-(trifluoromethyl)phenyl)-2-naphthoic acid]	963 ± 417
CCCCCCN1CCC(c2ccc(-c3cc(C(=O)O)cc4cc(-c5ccc(C(F)(F)F)cc5)ccc34)cc2)CC1 [Compound 9, 4-(4-(1-Hexylpiperidin-4-yl)phenyl)-7-(4-(trifluoromethyl)phenyl)-2-naphthoic acid]	131 ± 11
O=C(O)c1cc(-c2ccc(C34CCN(CC3)CC4)cc2)c2ccc(-c3ccc(C(F)(F)F)cc3)cc2c1 [Compound 17, 4-(4-(Quinuclidin-4-yl)phenyl)-7-(4-(trifluoromethyl)phenyl)-2-naphthoic acid]	20 ± 4.4
CC(C)(C)OC(=O)N1CCC(c2ccc(-c3cc(C(=O)O)cc4cc(-c5ccc(C(F)(F)F)cc5)ccc34)cc2)CC1 [Compound 10, 4-(4-(1-(tert-butoxycarbonyl)piperidin-4-yl)phenyl)-7-(4-(trifluoromethyl)phenyl)-2-naphthoic acid]	2440 ± 1540

same assay, conditions: Table 2; hP2Y14R-CHO cells, fluorescent antagonist tracer 20 nM, mean ± SEM (n = 3-5); read-out: IC50

Compound	IC50 [nM]
NC(=O)c1ccc(-c2cc(C(=O)O)cc(-c3cn(-c4ccc(C(F)(F)F)cc4)nn3)c2)cc1 [Compound 24, 4′-Carbamoyl-5-(1-(4-(trifluoromethyl)phenyl)-1H-1,2,3-triazol-4-yl)-[1,1′-biphenyl]-3-carboxylic acid]	1680 ± 380
O=C(O)c1cc(-c2ccc(C3CCNCC3)cc2)cc(-c2cn(-c3ccc(C(F)(F)F)cc3)nn2)c1 [Compound 25, 4′-(Piperidin-4-yl)-5-(1-(4-(trifluoromethyl)phenyl)-1H-1,2,3-triazol-4-yl)-[1,1′-biphenyl]-3-carboxylic acid]	644 ± 175
NC(=O)c1ccc(-c2cc(NC(=O)c3ccc(C(F)(F)F)cc3)cc(C(=O)O)c2)cc1 [Compound 27, 4′-Carbamoyl-5-(4-(trifluoromethyl)benzamido)-[1,1′-biphenyl]-3-carboxylic acid]	3050 ± 210
NCCCNC(=O)c1ccc(-c2cc(C(=O)O)cc(-c3cn(-c4ccc(C(F)(F)F)cc4)nn3)c2)s1 [Compound 26, 3-(5-((3-Aminopropyl)carbamoyl)thiophen-2-yl)-5-(1-(4-(trifluoromethyl)phenyl)-1H-1,2,3-triazol-4-yl)benzoic acid]	2600 ± 560
O=C(O)c1[nH]c(-c2ccc(C3=CCNCC3)cc2)cc1-n1cc(-c2ccc(C(F)(F)F)cc2)nn1 [Compound 33, 5-(4-(1,2,3,6-Tetrahydropyridin-4-yl)phenyl)-3-(4-(4-(trifluoromethyl)phenyl)-1H-1,2,3-triazol-1-yl)-1H-pyrrole-2-carboxylic acid]	> 100000
NC(=O)c1ccc(-c2cc(C(=O)O)cc(C(=O)Nc3ccc(C(F)(F)F)cc3)c2)cc1 [Compound 29, 4′-Carbamoyl-5-((4-(trifluoromethyl)phenyl)carbamoyl)-[1,1′-biphenyl]-3-carboxylic acid]	6040 ± 810
O=C(O)c1cc(-c2ccc(C3CCNCC3)cc2)c2nc(-c3ccc(C(F)(F)F)cc3)[nH]c2c1 [Compound 35, 4-(4-(Piperidin-4-yl)phenyl)-2-(4-(trifluoromethyl)phenyl)-1H-benzo[d]imidazole-6-carboxylic acid]	> 100000

same assay, conditions: Table 3 comparison column; values identical to Tables 1 and 2; read-out: hP2Y14R, IC50

Compound	IC50 [nM]
O=C(O)c1cc(-c2ccc(C3CCNCC3)cc2)cc(-c2cn(-c3ccc(C(F)(F)F)cc3)nn2)c1 [Compound 25, 4′-(Piperidin-4-yl)-5-(1-(4-(trifluoromethyl)phenyl)-1H-1,2,3-triazol-4-yl)-[1,1′-biphenyl]-3-carboxylic acid]	644 ± 175
O=C(O)c1cc(-c2ccc(N3CCNCC3)cc2)cc(-n2cc(-c3ccc(C(F)(F)F)cc3)nn2)c1 [Compound 4, 4′-(Piperazin-1-yl)-5-(4-(4-(trifluoromethyl)phenyl)-1H-1,2,3-triazol-1-yl)-[1,1′-biphenyl]-3-carboxylic acid]	233 ± 26

biological target: T2, mP2Y14R (Mus musculus, UniProt Q9ESG6); test: Fluorescence binding method at mP2Y14R expressed in HEK293 cells; settings: Table 3
T2 construct: expressed in transfected cells; host or cells: HEK293 cells
T2 sequence (Q9ESG6 1-338): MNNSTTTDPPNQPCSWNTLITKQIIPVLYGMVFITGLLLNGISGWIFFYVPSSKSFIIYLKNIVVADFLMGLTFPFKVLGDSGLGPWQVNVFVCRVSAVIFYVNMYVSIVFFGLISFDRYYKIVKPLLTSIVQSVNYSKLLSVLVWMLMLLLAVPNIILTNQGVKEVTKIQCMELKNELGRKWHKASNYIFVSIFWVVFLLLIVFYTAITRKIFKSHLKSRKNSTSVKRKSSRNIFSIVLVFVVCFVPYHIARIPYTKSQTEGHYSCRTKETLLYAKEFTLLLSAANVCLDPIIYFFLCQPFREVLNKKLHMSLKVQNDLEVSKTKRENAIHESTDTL
Source text: This example compares inhibitory potency of antagonists at the mP2Y14R to the hP2Y14R expressed in HEK293 cells, using the fluorescence binding method.

Compound	IC50 [nM]
O=C(O)c1cc(-c2ccc(N3CCNCC3)cc2)cc(-n2cc(-c3ccc(C(F)(F)F)cc3)nn2)c1 [Compound 4, 4′-(Piperazin-1-yl)-5-(4-(4-(trifluoromethyl)phenyl)-1H-1,2,3-triazol-1-yl)-[1,1′-biphenyl]-3-carboxylic acid]	499 ± 57
